Results from patent US20240199614A1, “MACROCYCLIC EGFR INHIBITORS FOR THE TREATMENT OF CANCER” (Theseus Pharmaceuticals, Inc., priority 2021, published 2024).

Key:
Ba/F3 EGFR-Del19/C797S = Ba/F3 EGFR-Del19/C797S (Homo sapiens, UniProt P00533, C797S, cells depend on it, form not given); test: Ba/F3 viability assay (CellTiter-Glo), BAF3 DC; assay type: cell-based; conditions: Ba/F3 EGFR-Del19/C797S cell viability
Source text: (§1) The biological activity of compounds described herein were studied according to standard methods known in the art. Methods were used to study inhibition of EGFR, including mutant forms of EGFR comprising L858R, T790M, C797S, and/or Del19 mutations, or any combination thereof (e.g., L858R single, double, or triple mutants). Exemplary, non-limiting methods are described herein.
(§2) Inhibition of cell proliferation was studied using Ba/F3 viability assays, including the Promega CellTiter-Glo cell viability assay. This assay was used to study the effect of compounds described herein in the following assays: (1) Ba/F3 EGFR-Del19/T790M; (2); Ba/F3 EGFR-Del19/C797S; and (3) Ba/F3 EGFR-Del19/T790M/C797S. P-EGFR Signaling Assays

Ba/F3 EGFR-Del19/T790M = Ba/F3 EGFR-Del19/T790M (Homo sapiens, UniProt P00533, T790M, cells depend on it, form not given); test: Ba/F3 viability assay (CellTiter-Glo), BAF3 DT; assay type: cell-based; conditions: Ba/F3 EGFR-Del19/T790M cell viability
Source text: as §1, §2

EGFR^L858R/T790M/C797S = EGFR^L858R/T790M/C797S (Homo sapiens, UniProt P00533, C797S/L858R/T790M); test: HTRF KinEASE-TK in vitro kinase assay, KINASE LTC; assay type: biochemical
Source text: as §1
(§3) Assays using an in vitro kinase assay kit (HTRF KinEASE-TK kit) were used to study the inhibitory activity of compounds described herein with respect to EGFR mutants such as (1) EGFRL858R, (2) EGFR^L858R/T790M, and (3) EGFR^L858R/T790M/C797S.

EGFR^L858R/T790M = EGFR^L858R/T790M (Homo sapiens, UniProt P00533, L858R/T790M); test: HTRF KinEASE-TK in vitro kinase assay, KINASE LT; assay type: biochemical
Source text: as §1, §3

EGFRL858R = EGFRL858R (Homo sapiens, UniProt P00533, L858R); test: HTRF KinEASE-TK in vitro kinase assay, KINASE L; assay type: biochemical; conditions: EGFR L858R kinase
Source text: as §1, §3

[1] = target: Ba/F3 EGFR-Del19/T790M/C797S (Homo sapiens, UniProt P00533, T790M/C797S, cells depend on it, form not given); test: Ba/F3 viability assay (CellTiter-Glo), BAF3 DTC; assay type: cell-based; conditions: Ba/F3 EGFR-Del19/T790M/C797S cell viability
Source text: as §1, §2

[2] = from Cc1cc(C(=O)O)cc(-c2cnn(C)c2CCCO[C@@H](C)Cn2c(N)nc3ccc(Br)cc32)n1; amide bond; 15-membered ring; TBTU/Et3N; DMF; 190.0 mM; 20.0 °C
[3] = from Cc1cc(C(=O)O)cc(-c2cnn(C)c2CCCO[C@@H](C)Cn2c(N)nc3ccc(Br)cc32)n1; amide bond; TBTU, Et3N; DMF; 190.0 mM; 20.0 °C; 0.5 h

Chain of EGFR^L858R/T790M/C797S (P00533 25-1210 T790M/C797S/L858R): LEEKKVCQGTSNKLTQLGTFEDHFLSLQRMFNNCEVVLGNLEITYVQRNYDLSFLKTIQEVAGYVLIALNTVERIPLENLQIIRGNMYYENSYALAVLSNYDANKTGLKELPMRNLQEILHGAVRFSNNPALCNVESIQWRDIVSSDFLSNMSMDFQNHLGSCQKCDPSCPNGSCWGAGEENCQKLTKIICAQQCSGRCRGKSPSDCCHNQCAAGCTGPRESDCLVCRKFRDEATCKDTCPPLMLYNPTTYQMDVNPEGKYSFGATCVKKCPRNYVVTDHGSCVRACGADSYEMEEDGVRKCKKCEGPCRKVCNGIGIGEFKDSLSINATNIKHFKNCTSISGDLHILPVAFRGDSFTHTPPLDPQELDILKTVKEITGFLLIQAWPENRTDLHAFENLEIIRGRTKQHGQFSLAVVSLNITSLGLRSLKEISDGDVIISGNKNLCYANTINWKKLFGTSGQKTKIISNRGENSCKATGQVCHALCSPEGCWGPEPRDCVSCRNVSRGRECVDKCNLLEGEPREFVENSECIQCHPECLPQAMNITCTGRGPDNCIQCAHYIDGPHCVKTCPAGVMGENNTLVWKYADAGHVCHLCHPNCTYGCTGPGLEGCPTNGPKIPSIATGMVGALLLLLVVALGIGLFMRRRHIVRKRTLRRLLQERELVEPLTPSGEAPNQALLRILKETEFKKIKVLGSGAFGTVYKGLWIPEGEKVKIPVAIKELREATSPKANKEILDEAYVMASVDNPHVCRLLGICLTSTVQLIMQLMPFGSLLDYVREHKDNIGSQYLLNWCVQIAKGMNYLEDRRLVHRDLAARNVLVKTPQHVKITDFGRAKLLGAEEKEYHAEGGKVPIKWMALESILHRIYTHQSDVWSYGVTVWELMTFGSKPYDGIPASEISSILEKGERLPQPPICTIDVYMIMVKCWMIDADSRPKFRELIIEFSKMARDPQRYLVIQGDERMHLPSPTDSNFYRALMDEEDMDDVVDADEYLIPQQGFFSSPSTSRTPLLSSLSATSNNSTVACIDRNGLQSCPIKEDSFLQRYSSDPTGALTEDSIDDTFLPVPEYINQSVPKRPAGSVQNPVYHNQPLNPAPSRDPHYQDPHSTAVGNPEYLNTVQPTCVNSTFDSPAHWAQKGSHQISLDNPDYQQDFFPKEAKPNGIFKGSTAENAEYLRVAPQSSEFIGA
Chain of Ba/F3 EGFR-Del19/C797S (P00533 with tags, fused parts or gaps DEL746-750/C797S, form open): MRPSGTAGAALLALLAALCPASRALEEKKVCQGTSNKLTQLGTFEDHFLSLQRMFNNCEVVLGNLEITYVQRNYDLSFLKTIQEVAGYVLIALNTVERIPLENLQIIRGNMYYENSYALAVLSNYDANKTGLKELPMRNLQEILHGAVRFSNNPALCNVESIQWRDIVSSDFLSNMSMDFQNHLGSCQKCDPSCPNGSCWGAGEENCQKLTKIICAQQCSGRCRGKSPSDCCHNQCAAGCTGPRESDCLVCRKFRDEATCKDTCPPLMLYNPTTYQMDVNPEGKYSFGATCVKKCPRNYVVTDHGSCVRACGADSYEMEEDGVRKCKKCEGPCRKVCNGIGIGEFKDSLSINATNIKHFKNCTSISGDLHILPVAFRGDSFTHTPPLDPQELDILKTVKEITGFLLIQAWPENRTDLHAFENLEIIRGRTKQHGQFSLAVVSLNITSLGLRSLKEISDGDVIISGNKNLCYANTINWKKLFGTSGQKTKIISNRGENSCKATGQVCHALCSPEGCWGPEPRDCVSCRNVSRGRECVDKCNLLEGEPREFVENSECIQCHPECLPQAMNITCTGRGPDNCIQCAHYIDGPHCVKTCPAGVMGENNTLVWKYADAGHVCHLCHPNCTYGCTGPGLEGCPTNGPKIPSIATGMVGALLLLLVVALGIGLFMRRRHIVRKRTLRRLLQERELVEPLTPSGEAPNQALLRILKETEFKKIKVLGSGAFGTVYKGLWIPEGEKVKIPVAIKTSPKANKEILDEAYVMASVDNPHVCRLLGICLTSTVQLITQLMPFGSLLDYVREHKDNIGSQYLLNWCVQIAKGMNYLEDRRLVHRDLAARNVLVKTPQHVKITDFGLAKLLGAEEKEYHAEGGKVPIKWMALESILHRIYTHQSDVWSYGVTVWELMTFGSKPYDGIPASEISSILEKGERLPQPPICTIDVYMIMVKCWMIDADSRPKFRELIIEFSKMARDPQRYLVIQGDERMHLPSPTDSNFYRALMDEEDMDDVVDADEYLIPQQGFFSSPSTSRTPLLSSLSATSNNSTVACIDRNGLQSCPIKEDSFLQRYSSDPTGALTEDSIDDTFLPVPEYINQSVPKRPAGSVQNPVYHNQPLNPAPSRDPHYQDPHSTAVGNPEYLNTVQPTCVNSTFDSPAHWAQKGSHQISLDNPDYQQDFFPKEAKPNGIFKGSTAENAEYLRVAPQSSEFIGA
Chain of EGFRL858R (P00533 25-1210 L858R): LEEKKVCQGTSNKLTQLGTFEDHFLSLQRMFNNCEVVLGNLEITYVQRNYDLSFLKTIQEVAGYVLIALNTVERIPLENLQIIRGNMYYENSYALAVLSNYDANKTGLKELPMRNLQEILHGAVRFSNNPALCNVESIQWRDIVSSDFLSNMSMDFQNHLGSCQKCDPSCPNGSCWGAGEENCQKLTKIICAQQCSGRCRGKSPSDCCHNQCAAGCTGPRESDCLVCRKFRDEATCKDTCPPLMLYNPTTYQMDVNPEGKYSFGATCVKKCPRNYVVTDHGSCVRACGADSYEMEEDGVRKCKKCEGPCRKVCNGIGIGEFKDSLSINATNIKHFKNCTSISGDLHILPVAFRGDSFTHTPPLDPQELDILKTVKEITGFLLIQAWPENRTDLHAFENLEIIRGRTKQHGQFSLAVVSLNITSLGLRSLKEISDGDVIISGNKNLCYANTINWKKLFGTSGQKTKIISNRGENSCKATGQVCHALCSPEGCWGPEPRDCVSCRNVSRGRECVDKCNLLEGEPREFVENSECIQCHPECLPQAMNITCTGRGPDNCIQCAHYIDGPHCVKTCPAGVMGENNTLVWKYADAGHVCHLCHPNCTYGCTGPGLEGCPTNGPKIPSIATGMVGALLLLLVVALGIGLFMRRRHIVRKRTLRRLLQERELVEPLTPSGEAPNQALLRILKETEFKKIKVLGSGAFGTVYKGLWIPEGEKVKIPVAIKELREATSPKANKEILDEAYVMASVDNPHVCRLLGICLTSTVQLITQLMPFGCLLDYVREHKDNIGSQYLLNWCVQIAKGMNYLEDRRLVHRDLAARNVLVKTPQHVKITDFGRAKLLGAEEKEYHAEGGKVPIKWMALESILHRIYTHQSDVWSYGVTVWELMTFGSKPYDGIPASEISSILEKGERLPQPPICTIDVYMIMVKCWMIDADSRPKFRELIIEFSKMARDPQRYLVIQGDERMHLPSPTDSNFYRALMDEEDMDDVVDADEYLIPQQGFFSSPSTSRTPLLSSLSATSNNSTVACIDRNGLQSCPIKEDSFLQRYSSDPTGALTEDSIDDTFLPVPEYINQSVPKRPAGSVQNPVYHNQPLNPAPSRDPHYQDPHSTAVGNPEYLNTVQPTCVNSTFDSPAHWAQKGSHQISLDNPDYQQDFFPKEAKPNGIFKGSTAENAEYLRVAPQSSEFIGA
Chain of EGFR^L858R/T790M (P00533 25-1210 T790M/L858R): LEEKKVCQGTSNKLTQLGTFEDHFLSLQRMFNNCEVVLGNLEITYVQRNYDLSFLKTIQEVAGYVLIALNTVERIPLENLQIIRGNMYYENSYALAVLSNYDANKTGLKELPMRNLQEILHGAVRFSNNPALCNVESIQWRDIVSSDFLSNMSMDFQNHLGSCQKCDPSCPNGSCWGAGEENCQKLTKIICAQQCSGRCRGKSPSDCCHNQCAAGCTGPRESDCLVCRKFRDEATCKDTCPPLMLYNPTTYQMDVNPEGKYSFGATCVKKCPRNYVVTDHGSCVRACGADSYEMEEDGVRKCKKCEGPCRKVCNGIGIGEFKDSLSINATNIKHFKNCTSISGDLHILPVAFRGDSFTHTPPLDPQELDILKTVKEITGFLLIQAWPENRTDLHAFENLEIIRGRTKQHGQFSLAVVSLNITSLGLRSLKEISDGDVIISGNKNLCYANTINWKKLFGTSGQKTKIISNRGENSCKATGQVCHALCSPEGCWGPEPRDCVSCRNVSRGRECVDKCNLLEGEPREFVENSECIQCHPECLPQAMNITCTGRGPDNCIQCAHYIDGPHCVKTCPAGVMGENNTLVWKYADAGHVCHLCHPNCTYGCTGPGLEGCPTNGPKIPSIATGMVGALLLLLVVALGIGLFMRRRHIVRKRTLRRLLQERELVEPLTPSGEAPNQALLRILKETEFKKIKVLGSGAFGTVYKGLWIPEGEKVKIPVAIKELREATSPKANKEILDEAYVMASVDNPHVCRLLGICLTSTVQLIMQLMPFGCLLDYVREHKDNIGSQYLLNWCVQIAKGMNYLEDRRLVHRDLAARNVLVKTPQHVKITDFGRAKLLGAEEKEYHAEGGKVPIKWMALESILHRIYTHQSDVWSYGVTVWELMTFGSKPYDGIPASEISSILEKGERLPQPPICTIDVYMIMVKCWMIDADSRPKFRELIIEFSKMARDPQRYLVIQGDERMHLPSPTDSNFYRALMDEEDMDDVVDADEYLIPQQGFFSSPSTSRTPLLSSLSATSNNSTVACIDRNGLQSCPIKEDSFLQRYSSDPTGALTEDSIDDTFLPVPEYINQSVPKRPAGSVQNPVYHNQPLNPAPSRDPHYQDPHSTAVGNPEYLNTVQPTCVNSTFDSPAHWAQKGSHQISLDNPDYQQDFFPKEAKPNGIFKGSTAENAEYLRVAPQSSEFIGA

| Compound | IC50 (EGFR^L858R/T790M/C797S) | IC50 (EGFR^L858R/T790M) | IC50 (EGFRL858R) | GI50 (Ba/F3 EGFR-Del19/C797S) | GI50 (Ba/F3 EGFR-Del19/T790M) | GI50 [1] | ring closure, isolated yield [2] | ring closure, yield of all isomers [3] |
| --- | --- | --- | --- | --- | --- | --- | --- | --- |
| Cc1cc2cc(n1)-c1cnn(C)c1CCC[C@@H](C)CN1/C(=N/C2=O)Nc2ccc(OC3CCNCC3)cc21 [(15)] | < 50 nM | < 50 nM | < 50 nM | < 50 nM | < 50 nM | < 50 nM | – | – |
| Cc1cc2cc(n1)-c1cnn(C)c1CCCO[C@@H](C)CN1/C(=N/C2=O)Nc2ccc(Br)cc21 | – | – | – | – | – | – | 28.8% | 28.8% |
| Cc1cc2cc(n1)-c1cnn(C)c1CCCCCCN1/C(=N/C2=O)Nc2ccc(CN3CCOCC3)cc21 [(62)] | 100 to 1000 nM | 100 to 1000 nM | < 50 nM | 50 to 100 nM | ≥ 1000 nM | 100 to 1000 nM | – | – |
| Cc1cc2cc(n1)-c1cnn(C)c1-c1cccc(c1)CN1/C(=N/C2=O)Nc2ccc(CN3CCN(C)CC3)cc21 [(61)] | < 50 nM | < 50 nM | 100 to 1000 nM | 100 to 1000 nM | 100 to 1000 nM | 100 to 1000 nM | – | – |
| Cc1cc2cc(n1)-c1cnn(C)c1CCC[C@@H](C)CN1/C(=N/C2=O)Nc2ccc(N3CCN(C(C)C)CC3)cc21 [(28)] | < 50 nM | < 50 nM | < 50 nM | < 50 nM | < 50 nM | < 50 nM | – | – |

Further lines, with some results ahead:

| IC50 (EGFR^L858R/T790M/C797S) | IC50 (EGFR^L858R/T790M) | IC50 (EGFRL858R) | Compound | GI50 (Ba/F3 EGFR-Del19/C797S) | GI50 (Ba/F3 EGFR-Del19/T790M) | GI50 [1] | ring closure, isolated yield [2] | ring closure, yield of all isomers [3] |
| --- | --- | --- | --- | --- | --- | --- | --- | --- |
| < 50 nM | < 50 nM | < 50 nM | COc1ccncc1-c1ccc2c(c1)N1C[C@H](C)CCCc3c(cnn3C)-c3cc(cc(C)n3)C(=O)/N=C/1N2 [(9)] | < 50 nM | < 50 nM | < 50 nM | – | – |
| < 50 nM | < 50 nM | < 50 nM | Cc1cc2cc(n1)-c1cnn(C)c1CCCCCN1/C(=N/C2=O)Nc2ccc(CN3CCNCC3)cc21 [(46)] | < 50 nM | < 50 nM | < 50 nM | – | – |
| < 50 nM | < 50 nM | < 50 nM | Cc1ccc(-c2ccc3c(c2)N2C[C@H](C)CCCc4c(cnn4C)-c4cc(cc(C)n4)C(=O)/N=C/2N3)cn1 [Compound (10), (10R,20E)-5,10,25-trimethyl-15-(6-methyl-3-pyridyl)-4,5,12,19,21,26-hexazapentacyclo[21.3.1.02,6.012,20.013,18]heptacosa-1(27),2(6),3,13(18),14,16,20,23,25-nonaen-22-one] | < 50 nM | < 50 nM | < 50 nM | – | – |
| < 50 nM | < 50 nM | < 50 nM | Cc1cc2cc(n1)-c1cnn(C)c1CCCCCCN1/C(=N/C2=O)Nc2ccc(CN3CCN(C)CC3)cc21 [(64)] | 50 to 100 nM | < 50 nM | < 50 nM | – | – |
| < 50 nM | < 50 nM | < 50 nM | Cc1cc2cc(n1)-c1cnn(C)c1CCC[C@@H](C)CN1/C(=N/C2=O)Nc2ccc(N3CCC(N4CCOCC4)CC3)cc21 [(24)] | < 50 nM | < 50 nM | < 50 nM | – | – |
| < 50 nM | < 50 nM | 100 to 1000 nM | Cc1cc2cc(n1)-c1cnn(C)c1CCCO[C@@H](C)CN1/C(=N/C2=O)Nc2ccc(CN3CCN(C)CC3)cc21 [Compound (55), (11S,21E)-5,11,26-trimethyl-16-[(4-methylpiperazin-1-yl)methyl]-10-oxa-4,5,13,20,22,27-hexazapentacyclo[22.3.1.02,6.013,21.014,19]octacosa-1(28),2(6),3,14(19),15,17,21,24,26-nonaen-23-one] | 100 to 1000 nM | 100 to 1000 nM | 50 to 100 nM | – | – |
| < 50 nM | < 50 nM | < 50 nM | Cc1cc2cc(n1)-c1cnn(C)c1CCC[C@@H](C)CN1/C(=N/C2=O)Nc2ccc(CN3CCN(C)CC3)cc21 [(35)] | < 50 nM | < 50 nM | < 50 nM | – | – |
